Source: patent USRE44733E1, “6-mercapto-cyclodextrin derivatives:reversal agents for drug-induced neuromuscular block” (Merck Sharp & Dohme B.V., priority 1999, dated 2014)

Tested on: neuromuscular block, induced by the muscle relaxant rocuronium bromide (Roc)
Assay: Reversal of neuromuscular blockade in anaesthetized guinea pigs in vivo
Conditions: for concentration at maximum reversal (at conc.) / % max reversal: anaesthetized guinea pigs, rocuronium bromide steady-state block; for concentration at maximum reversal (at conc.): dose of reversal agent at which % max reversal was seen; for % max reversal: maximum reversal; for ED50: dose producing 50% reversal of steady-state neuromuscular block: anaesthetized male Dunkin-Hartley guinea pigs, steady-state block of 85-90% by continuous rocuronium bromide infusion, reversal agent given by jugular vein catheter, M. gastrocnemius contractions
Procedure: Reversal of Neuromuscular Blockade in Anaesthetized Guinea Pigs in vivo
Male Dunkin-Hartley guinea pigs (bodyweight: 600-900 g) were anaesthetized by i.p. administration of 10 mg/kg pentobarbitone and 1000 mg/kg urethane. After tracheotomy, the animals were artificially ventilated using a Harvard small animal ventilator. A catheter was placed into the carotid artery for continuous monitoring of arterial blood pressure and the taking of blood samples for blood gas analysis. Heart rate was derived from the blood pressure signal. The sciatic nerve was stimulated (rectangular pulses of 0.5 ms duration at 10 s (0.1 Hz) intervals at a supramaximal voltage, using a Grass S88 Stimulator) and the force of M. gastrocnemius contractions was measured using a Grass FT03 force-displacement transducer. Contractions, blood pressure and heart rate were recorded on a multichannel Grass 7D recorder. Catheters were placed in both jugular veins. One catheter was used for the continuous infusion of a neuromuscular blocking agent. The infusion rate of the neuromuscular blocking agent was increased until a steady-state block of 85-90% was obtained. The other catheter was used for administration of increasing doses of the reversal agent. During continuous infusion of the neuromuscular blocking agent, single doses of increasing concentration of reversal agent were given. At the end of the experiment, the measured force of muscle contractions was plotted against the concentration of reversal agent, and using regression analysis techniques, the 50% reversal concentration was calculated. Results for the reversal of the neuromuscular block, induced by the muscle relaxant rocuronium bromide (Roc), by the 6-mercapto-cyclodextrin derivatives of Examples 1-19 are presented in Table I. For comparison, the reversal activity of the parent compounds β-cyclodextrin and γ-cyclodextrin are included as well.

OCCOCCSCC1OC2OC3C(CSCCOCCO)OC(OC4C(CSCCOCCO)OC(OC5C(CSCCOCCO)OC(OC6C(CSCCOCCO)OC(OC7C(CSCCOCCO)OC(OC8C(CSCCOCCO)OC(OC9C(CSCCOCCO)OC(OC1C(O)C2O)C(O)C9O)C(O)C8O)C(O)C7O)C(O)C6O)C(O)C5O)C(O)C4O)C(O)C3O (stereo not drawn) [example 11, 6-Per-deoxy-6-per(5-hydroxy-3-oxa-pentyl)thio-γ-cyclodextrin]
concentration at maximum reversal (at conc.): (2.1) μmol · kg^−1
% max reversal: 92%
ED50: dose producing 50% reversal of steady-state neuromuscular block: 0.47 µmol/kg

O=C([O-])c1ccccc1C(=O)NCCSC[C@H]1O[C@@H]2O[C@H]3[C@H](O)[C@@H](O)[C@@H](O[C@H]4[C@H](O)[C@@H](O)[C@@H](O[C@H]5[C@H](O)[C@@H](O)[C@@H](O[C@H]6[C@H](O)[C@@H](O)[C@@H](O[C@H]7[C@H](O)[C@@H](O)[C@@H](O[C@H]8[C@H](O)[C@@H](O)[C@@H](O[C@H]9[C@H](O)[C@@H](O)[C@@H](O[C@H]1[C@H](O)[C@H]2O)O[C@@H]9CSCCNC(=O)c1ccccc1C(=O)[O-])O[C@@H]8CSCCNC(=O)c1ccccc1C(=O)[O-])O[C@@H]7CSCCNC(=O)c1ccccc1C(=O)[O-])O[C@@H]6CSCCNC(=O)c1ccccc1C(=O)[O-])O[C@@H]5CSCCNC(=O)c1ccccc1C(=O)[O-])O[C@@H]4CSCCNC(=O)c1ccccc1C(=O)[O-])O[C@@H]3CSCCNC(=O)c1ccccc1C(=O)[O-].[Na+].[Na+].[Na+].[Na+].[Na+].[Na+].[Na+].[Na+] [example 12, 6-Per-deoxy-6-per[(2(2-carboxybenzoyl)amino)ethyl]thio-γ-cyclodextrin, Sodium Salt]
concentration at maximum reversal (at conc.): (0.48) μmol · kg^−1
% max reversal: 95%
ED50: dose producing 50% reversal of steady-state neuromuscular block: 0.085 µmol/kg

OCCSC[C@H]1O[C@@H]2O[C@H]3[C@H](O)[C@@H](O)[C@@H](O[C@H]4[C@H](O)[C@@H](O)[C@@H](O[C@H]5[C@H](O)[C@@H](O)[C@@H](O[C@H]6[C@H](O)[C@@H](O)[C@@H](O[C@H]7[C@H](O)[C@@H](O)[C@@H](O[C@H]8[C@H](O)[C@@H](O)[C@@H](O[C@H]9[C@H](O)[C@@H](O)[C@@H](O[C@H]1[C@H](O)[C@H]2O)O[C@@H]9CSCCO)O[C@@H]8CSCCO)O[C@@H]7CSCCO)O[C@@H]6CSCCO)O[C@@H]5CSCCO)O[C@@H]4CSCCO)O[C@@H]3CSCCO [example 13, 6-Per-deoxy-6-per(2-hydroxyethyl)thio-γ-cyclodextrin]
concentration at maximum reversal (at conc.): (2.0) μmol · kg^−1
% max reversal: 96%
ED50: dose producing 50% reversal of steady-state neuromuscular block: 0.20 µmol/kg

CNC(=O)CSCC1OC2OC3C(CSCC(=O)NC)OC(OC4C(CSCC(=O)NC)OC(OC5C(CSCC(=O)NC)OC(OC6C(CSCC(=O)NC)OC(OC7C(CSCC(=O)NC)OC(OC8C(CSCC(=O)NC)OC(OC9C(CSCC(=O)NC)OC(OC1C(O)C2O)C(O)C9O)C(O)C8O)C(O)C7O)C(O)C6O)C(O)C5O)C(O)C4O)C(O)C3O (stereo not drawn) [example 14, 6-Per-deoxy-6-per(N-methylamidomethyl)thio-γ-cyclodextrin]
concentration at maximum reversal (at conc.): (7.3) μmol · kg^−1
% max reversal: 102%
ED50: dose producing 50% reversal of steady-state neuromuscular block: 1.54 µmol/kg

CC(CSC[C@H]1O[C@@H]2O[C@H]3[C@H](O)[C@@H](O)[C@@H](O[C@H]4[C@H](O)[C@@H](O)[C@@H](O[C@H]5[C@H](O)[C@@H](O)[C@@H](O[C@H]6[C@H](O)[C@@H](O)[C@@H](O[C@H]7[C@H](O)[C@@H](O)[C@@H](O[C@H]8[C@H](O)[C@@H](O)[C@@H](O[C@H]9[C@H](O)[C@@H](O)[C@@H](O[C@H]1[C@H](O)[C@H]2O)O[C@@H]9CSCC(C)C(=O)[O-])O[C@@H]8CSCC(C)C(=O)[O-])O[C@@H]7CSCC(C)C(=O)[O-])O[C@@H]6CSCC(C)C(=O)[O-])O[C@@H]5CSCC(C)C(=O)[O-])O[C@@H]4CSCC(C)C(=O)[O-])O[C@@H]3CSCC(C)C(=O)[O-])C(=O)[O-].[Na+].[Na+].[Na+].[Na+].[Na+].[Na+].[Na+].[Na+] (stereo partly drawn) [example 15, 6-Per-deoxy-6-per(2-carboxypropyl)thio-γ-cyclodextrin, Sodium Salt]
concentration at maximum reversal (at conc.): (0.48) μmol · kg^−1
% max reversal: 103%
ED50: dose producing 50% reversal of steady-state neuromuscular block: 0.10 µmol/kg

O=C([O-])CCCSCC1OC2OC3C(CSCCCC(=O)[O-])OC(OC4C(CSCCCC(=O)[O-])OC(OC5C(CSCCCC(=O)[O-])OC(OC6C(CSCCCC(=O)[O-])OC(OC7C(CSCCCC(=O)[O-])OC(OC8C(CSCCCC(=O)[O-])OC(OC1C(O)C2O)C(O)C8O)C(O)C7O)C(O)C6O)C(O)C5O)C(O)C4O)C(O)C3O.[Na+].[Na+].[Na+].[Na+].[Na+].[Na+].[Na+] (stereo not drawn) [example 16, 6-Per-deoxy-6-per(3-carboxypropyl)thio-β-cyclodextrin, Sodium Salt]
concentration at maximum reversal (at conc.): (3.2) μmol · kg^−1
% max reversal: 100%
ED50: dose producing 50% reversal of steady-state neuromuscular block: 0.5 µmol/kg

O=S(=O)([O-])CCSCC1OC2OC3C(CSCCS(=O)(=O)[O-])OC(OC4C(CSCCS(=O)(=O)[O-])OC(OC5C(CSCCS(=O)(=O)[O-])OC(OC6C(CSCCS(=O)(=O)[O-])OC(OC7C(CSCCS(=O)(=O)[O-])OC(OC8C(CSCCS(=O)(=O)[O-])OC(OC9C(CSCCS(=O)(=O)[O-])OC(OC1C(O)C2O)C(O)C9O)C(O)C8O)C(O)C7O)C(O)C6O)C(O)C5O)C(O)C4O)C(O)C3O.[Na+].[Na+].[Na+].[Na+].[Na+].[Na+].[Na+].[Na+] (stereo not drawn) [example 17, 6-Per-deoxy-6-per(2-sulfoethyl)thio-γ-cyclodextrin, Sodium Salt]
concentration at maximum reversal (at conc.): (1.7) μmol · kg^−1
% max reversal: 106%
ED50: dose producing 50% reversal of steady-state neuromuscular block: 0.055 µmol/kg

OCC(CO)(CO)CSCC1OC2OC3C(CSCC(CO)(CO)CO)OC(OC4C(CSCC(CO)(CO)CO)OC(OC5C(CSCC(CO)(CO)CO)OC(OC6C(CSCC(CO)(CO)CO)OC(OC7C(CSCC(CO)(CO)CO)OC(OC8C(CSCC(CO)(CO)CO)OC(OC9C(CSCC(CO)(CO)CO)OC(OC1C(O)C2O)C(O)C9O)C(O)C8O)C(O)C7O)C(O)C6O)C(O)C5O)C(O)C4O)C(O)C3O (stereo not drawn) [example 18, 6-Per-deoxy-6-per(2,2-di(hydroxymethyl)-3-hydroxy-propyl)thio-γ-cyclodextin]
concentration at maximum reversal (at conc.): (4.9) μmol · kg^−1
% max reversal: 63%
ED50: dose producing 50% reversal of steady-state neuromuscular block: 2.9 µmol/kg

OC1C2OC(CSCCCc3nnn[n-]3)C(OC3OC(CSCCCc4nnn[n-]4)C(OC4OC(CSCCCc5nnn[n-]5)C(OC5OC(CSCCCc6nnn[n-]6)C(OC6OC(CSCCCc7nnn[n-]7)C(OC7OC(CSCCCc8nnn[n-]8)C(OC8OC(CSCCCc9nnn[n-]9)C(OC9OC(CSCCCc%10nnn[n-]%10)C(O2)C(O)C9O)C(O)C8O)C(O)C7O)C(O)C6O)C(O)C5O)C(O)C4O)C(O)C3O)C1O.[Na+].[Na+].[Na+].[Na+].[Na+].[Na+].[Na+].[Na+] (stereo not drawn) [example 19, 6-Per-deoxy-6-per(3-(tetrazol-5-yl)propyl)thio-γ-cyclodextrin, Sodium Salt]
concentration at maximum reversal (at conc.): (1.2) μmol · kg^−1
% max reversal: 109%
ED50: dose producing 50% reversal of steady-state neuromuscular block: 0.22 µmol/kg

OC[C@H]1O[C@@H]2O[C@H]3[C@H](O)[C@@H](O)[C@@H](O[C@H]4[C@H](O)[C@@H](O)[C@@H](O[C@H]5[C@H](O)[C@@H](O)[C@@H](O[C@H]6[C@H](O)[C@@H](O)[C@@H](O[C@H]7[C@H](O)[C@@H](O)[C@@H](O[C@H]8[C@H](O)[C@@H](O)[C@@H](O[C@H]1[C@H](O)[C@H]2O)O[C@@H]8CO)O[C@@H]7CO)O[C@@H]6CO)O[C@@H]5CO)O[C@@H]4CO)O[C@@H]3CO [β-cyclodextrin, reference compound]
concentration at maximum reversal (at conc.): (113) μmol · kg^−1
% max reversal: 93%
ED50: dose producing 50% reversal of steady-state neuromuscular block: 20 µmol/kg

OC[C@H]1O[C@@H]2O[C@H]3[C@H](O)[C@@H](O)[C@@H](O[C@H]4[C@H](O)[C@@H](O)[C@@H](O[C@H]5[C@H](O)[C@@H](O)[C@@H](O[C@H]6[C@H](O)[C@@H](O)[C@@H](O[C@H]7[C@H](O)[C@@H](O)[C@@H](O[C@H]8[C@H](O)[C@@H](O)[C@@H](O[C@H]9[C@H](O)[C@@H](O)[C@@H](O[C@H]1[C@H](O)[C@H]2O)O[C@@H]9CO)O[C@@H]8CO)O[C@@H]7CO)O[C@@H]6CO)O[C@@H]5CO)O[C@@H]4CO)O[C@@H]3CO [γ-cyclodextrin, reference compound]
concentration at maximum reversal (at conc.): (47) μmol · kg^−1
% max reversal: 104%
ED50: dose producing 50% reversal of steady-state neuromuscular block: 4 µmol/kg
